This note sets out measurements from the METLIN SMRT retention time set (Domingo-Almenara et al. 2019).

The series is described as follows: gradient 5% acetonitrile 3 min, to 50% in 2 min, to 85% in 15 min, held 3 min, 100 µL/min. The conditions noted are these: column: Zorbax Extend-C18 2.1 x 50 mm; eluents: water / acetonitrile, 0.1% formic acid. The method in brief: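 Each retention time is based on an adduct peak selected computationally and verified by manual inspection. Measurements used HPLC–quadrupole time-of-flight mass spectrometry in positive and negative ionization mode on mixtures of ~100 pure standards. Chromatography ran on a Zorbax Extend-C18 column (2.1 × 50 mm, 1.8 μm) at 100 μL/min with water and acetonitrile, each containing 0.1% formic acid, and dead and dwell volumes of 40 μL and 900 μL.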
Compound `CC(C)(C)C(=O)Nc1nnc(SCc2nnc(-c3ccc4c(c3)OCO4)o2)s1` returned an RP-LC retention time of 843 s.

As to `CCOc1ccc(-c2noc(Cc3nc(-c4cccc(OC)c4)cs3)n2)cc1`, the RP-LC retention time was 1230 s.

Consider `Cc1cnc(C2CN(C3CCCCCC3)C2)n1Cc1cccnc1`, for which the RP-LC retention time was 608 s.

`COc1ccc(C(=O)N2CCCC2c2nc(-c3cccc(C)c3)no2)cn1` (centres undefined): the RP-LC retention time stood at 947 s.

On to `CCNC(=O)c1cc(C)nc2ccc(Cl)cc12`, for which the RP-LC retention time came out at 649 s.

As to `CCOCCOC1CCN(S(=O)(=O)c2cccc(OC)c2)CC1`, the RP-LC retention time was 881 s.

In the case of `Cc1cccc(N(C)C(=O)CCS(=O)(=O)c2ccc3c(c2)CC(C)N3C(=O)C2CC2)c1` (centres undefined), the RP-LC retention time turned out to be 807 s.

Regarding `CCOC(=O)c1cc(S(=O)(=O)N2CCN(c3ccccn3)CC2)[nH]n1`, the RP-LC retention time is 598 s.

As to `COc1ccc(C2C(C(=O)O)c3ccccc3C(=O)N2C)cc1` (centres undefined), the RP-LC retention time stood at 688 s.

Compound `CCN1CCC(N(Cc2cccs2)C(=O)Nc2cc(OC)c(OC)c(OC)c2)CC1` gave an RP-LC retention time of 628 s.

As for `Cc1cc(C)cc(C(=O)N2CCC(C(=O)NCc3csc(-c4cccs4)n3)CC2)c1`, the RP-LC retention time was 860 s.

As to `Cc1ccc(CC(=O)Nc2ccc(-c3nc(Cn4cc(C)cn4)c(C)o3)cc2)cc1`, the RP-LC retention time came out at 962 s.

`O=C(c1ccc2c(c1)OCO2)N1CCCC2(C1)NC(=O)N(Cc1ccccc1)C2=O` (centres undefined) yielded an RP-LC retention time of 762 s.

In turn, `COCCNC(=O)c1ccc(-c2nc(CSc3ccccc3)c(C)o2)cc1` yielded an RP-LC retention time of 882 s.

`CCc1nnc2cc(N3CCN(Cc4ccc(C(C)C)cc4)CC3)cnn12`: the RP-LC retention time amounted to 608 s.

For the compound `COc1ccc(NC(=O)N2CCC3(CC2)Nc2ccccc2-n2cccc23)c(OC)c1`, the RP-LC retention time is 1000 s.

As for `Cc1nc(C)c(C(=O)N2CCCC2c2nc(CCOCC3CC3)no2)s1` (centres undefined), the RP-LC retention time was 732 s.

As to `Cc1c(Cl)cccc1Nc1c(-c2cccc(Cl)c2)nc2cnccn12`, the RP-LC retention time was determined as 1140 s.

`CC12CCC(C1)C(C)(C)C2OC(=O)c1ccccc1C(=O)O` (centres undefined) displayed an RP-LC retention time of 1130 s.

`O=C(Nc1cccn2c(C3CCC3)nnc12)c1cc2ccccc2[nH]1` yielded an RP-LC retention time of 818 s.

The compound `Cc1cc(NC(=O)c2cccc(N3C(=O)CCC3=O)c2)n(-c2nc3ccc(F)cc3s2)n1` had an RP-LC retention time of 706 s.

Compound `O=C(O)c1cn(-c2ccc(F)c(F)c2)nn1` showed an RP-LC retention time of 664 s.

With `CCc1nc2ccccc2n1CC(O)COc1cc(C)cc(C)c1` (centres undefined), the RP-LC retention time came to 733 s.

On to `CC12CCC(C(=O)Nc3ccc(Cl)cn3)(OC1=O)C2(C)C` (centres undefined), for which the RP-LC retention time was determined as 890 s.

Consider `COc1ccc(Cl)cc1NC(=O)N1CCCC(C)(C(=O)NCc2ccc(C)cc2)C1` (centres undefined), for which the RP-LC retention time worked out at 982 s.

Compound `COC(=O)c1cc(OCC(=O)Nc2ccc3c(c2)OCO3)c2cc(Cl)ccc2n1` returned an RP-LC retention time of 863 s.

For `CCN1C(=O)C2(CCN(S(=O)(=O)c3cn(C)cn3)CC2)c2ccccc21`, the RP-LC retention time was 724 s.

For the compound `Nc1ccc(CCNc2ncnc3c2ncn3C2OC(CO)C(O)C2O)cc1` (centres undefined), the RP-LC retention time turned out to be 540 s.

For `COc1ccc(OC)c(NC(=O)c2ccc3nc(-c4ccccc4)cn3c2)c1`, the RP-LC retention time is 762 s.

With `Cc1ccc(CC(=O)NC2CCN(c3nnc4cccc(C)n34)CC2)cc1`, the RP-LC retention time is 680 s.

For `Cc1ccc(NC(=O)N(CCc2cccs2)Cc2cccnc2)cc1C`, the RP-LC retention time came out at 649 s.

On to `Cc1ccc(C(=O)N2CCC3(CC2)c2nccn2-c2ccccc2CN3CC(C)C)cc1F`, for which the RP-LC retention time worked out at 786 s.

On to `Cc1cc(NC(=O)c2cn(Cc3cccc(F)c3)nc2OCc2cccc(F)c2)no1`, for which the RP-LC retention time was determined as 1040 s.

With `Cc1cc(C2CCCN2C(=O)c2cnn3c(C(F)(F)F)cc(-c4ccco4)nc23)on1` (centres undefined), the RP-LC retention time turned out to be 855 s.

`CCn1cc(CCN2CCN(C(=O)C3CCCCC3)CC2)c2cccnc21` registered an RP-LC retention time of 613 s.

On to `O=C(NCc1nnnn1C1CCCCC1)OCc1ccccc1`, for which the RP-LC retention time came to 757 s.

`CCN1c2ccc(F)cc2C(=O)NC12CCN(C(=O)c1ccc(C)cc1C)CC2` displayed an RP-LC retention time of 861 s.

The compound `O=C(C1CCCN(c2ccc(-c3ccccc3)nn2)C1)N1CCN(c2ccccc2F)CC1` (centres undefined) registered an RP-LC retention time of 788 s.

In turn, `COc1ccc(S(=O)(=O)N2CCCC(C(=O)NCc3cccnc3)C2)cc1OC` (centres undefined) came in with an RP-LC retention time of 591 s.

With `O=C(CSc1ccncc1)N1CCc2cc(-c3csc(C4CC4)n3)ccc21`, the RP-LC retention time was 723 s.

In turn, `COc1ccc(C)cc1NC(=O)N1CCC(c2nc3ccncc3n2CC(C)C)C1` (centres undefined) yielded an RP-LC retention time of 586 s.

`COc1cccc(N2CCN(C(=O)C3CCN(S(=O)(=O)c4cn(C)c(C)n4)CC3)CC2)c1` displayed an RP-LC retention time of 702 s.

Regarding `Cc1ccc(CNC(=O)N2CCN(c3cnn4c(C)nnc4c3)CC2)cc1`, the RP-LC retention time came out at 568 s.

The compound `O=c1c(=O)n(-c2ccccc2)ccn1Cc1cccc(C(F)(F)F)c1` yielded an RP-LC retention time of 770 s.

Consider `CCN1CCCCc2cc(C(=O)NCCN3CCCCC3C)sc21` (centres undefined), for which the RP-LC retention time is 698 s.

Consider `Cc1sc(NC(=O)C2CCCO2)nc1-c1ccc2c(c1)NC(=O)CO2` (centres undefined), for which the RP-LC retention time was 732 s.

In turn, `Cc1ccc(CNC(=O)C2(C)Oc3cccnc3N(C)C2=O)o1` (centres undefined) gave an RP-LC retention time of 740 s.

`O=C(c1cn(-c2cc(N3CCCCC3)ncn2)cn1)N1CCN(c2ccccc2)CC1` had an RP-LC retention time of 944 s.

`CCCc1cc(N2CCN(C(=O)Cc3ccsc3)CC2)nc2nnc(C)n12` gave an RP-LC retention time of 627 s.

Take `COc1ccccc1CNC(=O)Cn1c(N)nc(C)cc1=O`: the RP-LC retention time amounted to 574 s.

The compound `COCCC(=O)N1CC(F)(F)C[C@H]1c1nc(COC)no1` displayed an RP-LC retention time of 649 s.

Compound `COc1cc([C@@H]2c3cc4c(cc3[C@H](O)[C@@H](CO)[C@@H]2C(=O)N2CCN(c3ccccc3)CC2)OCO4)cc(OC)c1OC` registered an RP-LC retention time of 749 s.

As to `CCSc1nc2ccc(NS(=O)(=O)Cc3ccc(Cl)cc3)cc2s1`, the RP-LC retention time stood at 1080 s.

`CCN(CC)C(=O)c1cc(NS(=O)(=O)c2ccc(C(C)(C)C)cc2)cnc1N1CCNCC1` showed an RP-LC retention time of 680 s.

For `CCOc1ccccc1NC(=O)C1CCN(S(C)(=O)=O)c2ccccc2O1` (centres undefined), the RP-LC retention time worked out at 994 s.

On to `COc1ccc(C2=C(C)C(N3CCC(C(=O)N(C)Cc4ccco4)CC3)=NS2(=O)=O)cc1`, for which the RP-LC retention time turned out to be 815 s.

In turn, `Cc1ccc([N+](=O)[O-])cc1NC(=O)Nc1cccc(F)c1` gave an RP-LC retention time of 1010 s.

Consider `CCOC(=O)c1noc2nc(C)nc(Nc3ccc(C)c(F)c3)c12`, for which the RP-LC retention time was found to be 1230 s.

`Cn1c(=O)c(F)c(Nc2ccc(I)cc2F)c2c(=O)n(C[C@@H](O)CO)cnc21`: the RP-LC retention time amounted to 756 s.

`O=C(Nc1cccc(-c2nnc3n2CCCC3)c1)c1ccco1` came in with an RP-LC retention time of 640 s.

The compound `CCOC(=O)c1nn(-c2ccc(C)cc2)c(=O)cc1NC(=O)c1cc(Cl)ccc1OC` had an RP-LC retention time of 1140 s.

For the compound `CCOCCOC1CCN(C(=O)c2cccs2)CC1`, the RP-LC retention time is 725 s.

For `Cn1nc(-c2nc(C3CC3)no2)c2c1CCN(C(=O)c1ccccc1Br)C2`, the RP-LC retention time came to 821 s.

Compound `CCCn1cc(CCNS(=O)(=O)c2cccc(C#N)c2)c2cccnc21` returned an RP-LC retention time of 789 s.

Compound `COCCN1C(=O)CCc2cc(NS(=O)(=O)c3cc(OC)ccc3OC)ccc21` registered an RP-LC retention time of 724 s.

In turn, `CC(C)N1C(=O)c2cccnc2Sc2cc(NC(=O)Cc3ccc(F)cc3)ccc21` had an RP-LC retention time of 867 s.

The compound `CC(C)c1ccc(NC(=O)Cn2nc(N3CCCC3)c3ccccc3c2=O)cc1` yielded an RP-LC retention time of 1090 s.

`COc1cccc(CNC(=O)Cn2c(=O)c3cc(C4CC4)nn3c3ncccc32)c1` returned an RP-LC retention time of 742 s.

In turn, `O=C(c1nnc(-c2ccc(S(=O)(=O)N3CCCCC3)cc2)o1)N1CCN(c2ccccc2)CC1` had an RP-LC retention time of 1080 s.

In turn, `Cc1ccc(S(=O)(=O)N2CCCOC2CNC(=O)C(=O)NCc2cccs2)cc1` (centres undefined) returned an RP-LC retention time of 806 s.

Compound `O=C(Nc1ccc(F)cc1F)C1CCCN(C(=O)Cc2cccc3ccccc23)C1` (centres undefined) registered an RP-LC retention time of 958 s.

As for `Cc1nn(C)c(C)c1-c1cc(C(=O)O)[nH]n1`, the RP-LC retention time is 574 s.

In turn, `Cc1ccccc1Oc1nccn2c(=O)n(CC(=O)Nc3cc(F)ccc3F)nc12` showed an RP-LC retention time of 908 s.

Compound `O=c1c2oc3ccccc3c2ncn1Cc1nc(-c2cccc(C(F)(F)F)c2)no1` came in with an RP-LC retention time of 1040 s.

Compound `O=C(NC(c1ccccc1)c1nnc(N2CCCC2)o1)c1ccccc1Cl` (centres undefined) displayed an RP-LC retention time of 867 s.

`Cc1ccc(C(C)NC(=O)C2CCN(c3nccnc3Oc3ccccc3)CC2)c(C)c1` (centres undefined): the RP-LC retention time turned out to be 1090 s.

`Cc1ccc(-c2cc3c(=O)n(Cc4nc(-c5ccc(Cl)cc5)no4)ncn3n2)c(C)c1`: the RP-LC retention time was 1320 s.

Regarding `O=C(NC1CCCCC1)C1CC(=O)N(c2ccc3c(c2)CCN3C(=O)C2CC2)C1` (centres undefined), the RP-LC retention time came out at 733 s.

Regarding `CCCCNC(=O)c1sc(Nc2cccc(C)n2)nc1C`, the RP-LC retention time was 777 s.
